Assay results from patent US20070049564A1 (Wyeth, priority 2005, published 2007).
Converted amounts (≈) assume the structure as drawn. Where two headings read alike, the source gives them in different places.

What was measured:
[1] = test system: E. faecalis GC 2267; experiment: MIC, broth microdilution; details: Enterococcus faecalis
[2] = test system: S. aureus GC 6467; experiment: MIC, broth microdilution; details: Staphylococcus aureus
[3] = test system: E. coli GC 2232; experiment: MIC, broth microdilution; details: Escherichia coli
[4] = test system: E. coli GC 2272; experiment: MIC, broth microdilution; details: Escherichia coli
[5] = test system: Staph.; experiment: Range of MIC for Staph. strains, including MRSA; details: Staphylococcus aureus
[6] = test system: S. agalactiae GC 4564; experiment: MIC, broth microdilution; details: Streptococcus agalactiae
[7] = test system: E. coli; experiment: Range of MIC for E. coli strains; details: Escherichia coli
[8] = test system: S. aureus GC 6466; experiment: MIC, broth microdilution; details: Staphylococcus aureus
[9] = test system: E. coli GC 4560; experiment: MIC, broth microdilution; details: Escherichia coli
[10] = test system: E. faecalis GC 2265; experiment: MIC, broth microdilution; details: Enterococcus faecalis
[11] = test system: E. coli GC 6465; experiment: MIC, broth microdilution; details: Escherichia coli
[12] = test system: E. coli GC 3226; experiment: MIC, broth microdilution; details: Escherichia coli
[13] = test system: E. coli GC 2231; experiment: MIC, broth microdilution; details: Escherichia coli
[14] = test system: S. aureus GC 4536; experiment: MIC, broth microdilution; details: Staphylococcus aureus
[15] = test system: E. faecalis GC 4555; experiment: MIC, broth microdilution; details: Enterococcus faecalis
[16] = test system: S. aureus GC 6469; experiment: MIC, broth microdilution; details: Staphylococcus aureus
Method: Antimicrobial susceptibility testing. The in vitro activities of the antibiotics are determined by the broth microdilution method as recommended by the National Committee for Clinical Laboratory Standards (NCCLS) (1). Mueller-Hinton II broth (MHBII)(BBL Cockeysville, Md.) is the medium employed in the testing procedures. Microtiter plates containing serial dilutions of each antimicrobial agent are inoculated with each organism to yield the appropriate density (10^5 CFU/ml) in a 100 μl final volume. The plates are incubated for 18-22 hours at 35° C. in ambient air.
Representative compounds were first incubated in mouse serum for an hour prior to the in vitro testing against a panel of selected gram-positive and gram-negative bacteria strains. All compounds were also pre-incubated in water for an hour prior to testing as control.

[17] = test system: S. typhimurium GC 2172; experiment: MIC, broth microdilution; details: Salmonella enterica, TYPHIMURIUM
[18] = test system: E. faecium GC 2243; experiment: MIC, broth microdilution; details: Enterococcus faecium
[19] = test system: S. pneumoniae* GC 4465; experiment: MIC, broth microdilution; details: Streptococcus pneumoniae
[20] = test system: E. coli GC 2203; experiment: MIC, broth microdilution; details: Escherichia coli
[21] = read-out: MINIMAL INHIBITORY CONCENTRATION MIC, Human Serum
[22] = read-out: MINIMAL INHIBITORY CONCENTRATION MIC, Mouse Serum
[23] = read-out: MINIMAL INHIBITORY CONCENTRATION MIC, Water

## CC(C)COC(=O)N(CC(=O)Nc1cc(N(C)C)c2c(c1O)C(=O)C1=C(O)[C@]3(O)C(=O)C(C(N)=O)=C(O)[C@@H](N(C)C)[C@@H]3C[C@@H]1C2)C(C)(C)C [Example 59, isobutyl 2-{[(5aR,6aS,7S,10aS)-9-(aminocarbonyl)-4,7-bis(dimethylamino)-1,8,10a,11-tetrahydroxy-10,12-dioxo-5,5a,6,6a,7,10,10a,12-octahydrotetracen-2-yl]amino}-2-oxoethyl(tert-butyl)carbamate]
[1]; GC2267, read-out: MINIMAL INHIBITORY CONCENTRATION MIC, Human Serum
  MIC: 4 µg/mL (≈ 5.83 µM)
[1]; GC2267, read-out: MINIMAL INHIBITORY CONCENTRATION MIC, Mouse Serum
  MIC: 4 µg/mL (≈ 5.83 µM)
[1]; GC2267, read-out: MINIMAL INHIBITORY CONCENTRATION MIC, Water
  MIC: 4 µg/mL (≈ 5.83 µM)
[2]; GC6467, read-out: MINIMAL INHIBITORY CONCENTRATION MIC, Human Serum
  MIC: 4 µg/mL (≈ 5.83 µM)
[2]; GC6467, read-out: MINIMAL INHIBITORY CONCENTRATION MIC, Mouse Serum
  MIC: 4 µg/mL (≈ 5.83 µM)
[2]; GC6467, read-out: MINIMAL INHIBITORY CONCENTRATION MIC, Water
  MIC: 4 µg/mL (≈ 5.83 µM)
[3]; GC2232, read-out: MINIMAL INHIBITORY CONCENTRATION MIC, Human Serum
  MIC: > 64 µg/mL
[3]; GC2232, read-out: MINIMAL INHIBITORY CONCENTRATION MIC, Mouse Serum
  MIC: > 64 µg/mL
[3]; GC2232, read-out: MINIMAL INHIBITORY CONCENTRATION MIC, Water
  MIC: > 64 µg/mL
[4]; GC2272, read-out: MINIMAL INHIBITORY CONCENTRATION MIC, Human Serum
  MIC: > 64 µg/mL
[4]; GC2272, read-out: MINIMAL INHIBITORY CONCENTRATION MIC, Mouse Serum
  MIC: 64 µg/mL (≈ 93.3 µM)
[4]; GC2272, read-out: MINIMAL INHIBITORY CONCENTRATION MIC, Water
  MIC: > 64 µg/mL
[5]; MRSA, read-out: Range of MIC, Staph (Mouse Serum)
  MIC: 4 µg/mL (≈ 5.83 µM)
[5]; MRSA, read-out: Range of MIC, Staph (Water)
  MIC: 4 to 8 µg/mL (≈ 5.83 to 11.7 µM)
[5]; read-out: Minimum inhibitory concentration (MIC), Staph (Human Serum)
  MIC: 2 to 4 µg/mL (≈ 2.92 to 5.83 µM)
[5]; read-out: Minimum inhibitory concentration (MIC), Staph (Water)
  MIC: 4 to 8 µg/mL (≈ 5.83 to 11.7 µM)
[6]; GC4564, read-out: MINIMAL INHIBITORY CONCENTRATION MIC, Human Serum
  MIC: 8 µg/mL (≈ 11.7 µM)
[6]; GC4564, read-out: MINIMAL INHIBITORY CONCENTRATION MIC, Mouse Serum
  MIC: 8 µg/mL (≈ 11.7 µM)
[6]; GC4564, read-out: MINIMAL INHIBITORY CONCENTRATION MIC, Water
  MIC: 8 µg/mL (≈ 11.7 µM)
[7]; read-out: Minimum inhibitory concentration (MIC), E. coli (Human Serum)
  MIC: > 64 µg/mL
[7]; read-out: Minimum inhibitory concentration (MIC), E. coli (water)
  MIC: > 64 µg/mL
[7]; read-out: Range of MIC, E. coli (Water)
  MIC: > 64 µg/mL
[8]; GC6466, read-out: MINIMAL INHIBITORY CONCENTRATION MIC, Human Serum
  MIC: 4 µg/mL (≈ 5.83 µM)
[8]; GC6466, read-out: MINIMAL INHIBITORY CONCENTRATION MIC, Mouse Serum
  MIC: 4 µg/mL (≈ 5.83 µM)
[8]; GC6466, read-out: MINIMAL INHIBITORY CONCENTRATION MIC, Water
  MIC: 8 µg/mL (≈ 11.7 µM)
[9]; GC4560, read-out: MINIMAL INHIBITORY CONCENTRATION MIC, Human Serum
  MIC: 4 µg/mL (≈ 5.83 µM)
[9]; GC4560, read-out: MINIMAL INHIBITORY CONCENTRATION MIC, Mouse Serum
  MIC: 4 µg/mL (≈ 5.83 µM)
[9]; GC4560, read-out: MINIMAL INHIBITORY CONCENTRATION MIC, Water
  MIC: 4 µg/mL (≈ 5.83 µM)
[10]; GC2265, read-out: MINIMAL INHIBITORY CONCENTRATION MIC, Human Serum
  MIC: 4 µg/mL (≈ 5.83 µM)
[10]; GC2265, read-out: MINIMAL INHIBITORY CONCENTRATION MIC, Mouse Serum
  MIC: 4 µg/mL (≈ 5.83 µM)
[10]; GC2265, read-out: MINIMAL INHIBITORY CONCENTRATION MIC, Water
  MIC: 4 µg/mL (≈ 5.83 µM)
[11]; GC6465, read-out: MINIMAL INHIBITORY CONCENTRATION MIC, Human Serum
  MIC: > 64 µg/mL
[11]; GC6465, read-out: MINIMAL INHIBITORY CONCENTRATION MIC, Mouse Serum
  MIC: 32 µg/mL (≈ 46.7 µM)
[11]; GC6465, read-out: MINIMAL INHIBITORY CONCENTRATION MIC, Water
  MIC: > 64 µg/mL
[12]; GC3226, read-out: MINIMAL INHIBITORY CONCENTRATION MIC, Human Serum
  MIC: > 64 µg/mL
[12]; GC3226, read-out: MINIMAL INHIBITORY CONCENTRATION MIC, Mouse Serum
  MIC: > 64 µg/mL
[12]; GC3226, read-out: MINIMAL INHIBITORY CONCENTRATION MIC, Water
  MIC: > 64 µg/mL
[13]; GC2231, read-out: MINIMAL INHIBITORY CONCENTRATION MIC, Human Serum
  MIC: > 64 µg/mL
[13]; GC2231, read-out: MINIMAL INHIBITORY CONCENTRATION MIC, Mouse Serum
  MIC: > 64 µg/mL
[13]; GC2231, read-out: MINIMAL INHIBITORY CONCENTRATION MIC, Water
  MIC: > 64 µg/mL
[14]; GC4536, read-out: MINIMAL INHIBITORY CONCENTRATION MIC, Human Serum
  MIC: 4 µg/mL (≈ 5.83 µM)
[14]; GC4536, read-out: MINIMAL INHIBITORY CONCENTRATION MIC, Mouse Serum
  MIC: 4 µg/mL (≈ 5.83 µM)
[14]; GC4536, read-out: MINIMAL INHIBITORY CONCENTRATION MIC, Water
  MIC: 4 µg/mL (≈ 5.83 µM)
[15]; GC4555, read-out: MINIMAL INHIBITORY CONCENTRATION MIC, Human Serum
  MIC: 4 µg/mL (≈ 5.83 µM)
[15]; GC4555, read-out: MINIMAL INHIBITORY CONCENTRATION MIC, Mouse Serum
  MIC: 4 µg/mL (≈ 5.83 µM)
[15]; GC4555, read-out: MINIMAL INHIBITORY CONCENTRATION MIC, Water
  MIC: 4 µg/mL (≈ 5.83 µM)
[16]; GC6469, read-out: MINIMAL INHIBITORY CONCENTRATION MIC, Human Serum
  MIC: 4 µg/mL (≈ 5.83 µM)
[16]; GC6469, read-out: MINIMAL INHIBITORY CONCENTRATION MIC, Mouse Serum
  MIC: 4 µg/mL (≈ 5.83 µM)
[16]; GC6469, read-out: MINIMAL INHIBITORY CONCENTRATION MIC, Water
  MIC: 4 µg/mL (≈ 5.83 µM)
[17]; [21]
  MIC: > 64 µg/mL
[17]; [22]
  MIC: > 64 µg/mL
[17]; [23]
  MIC: > 64 µg/mL
[18]; GC2243, read-out: MINIMAL INHIBITORY CONCENTRATION MIC, Human Serum
  MIC: 8 µg/mL (≈ 11.7 µM)
[18]; GC2243, read-out: MINIMAL INHIBITORY CONCENTRATION MIC, Mouse Serum
  MIC: 4 µg/mL (≈ 5.83 µM)
[18]; GC2243, read-out: MINIMAL INHIBITORY CONCENTRATION MIC, Water
  MIC: 4 µg/mL (≈ 5.83 µM)
[19]; [21]
  MIC: 4 µg/mL (≈ 5.83 µM)
[19]; [22]
  MIC: 4 µg/mL (≈ 5.83 µM)
[19]; [23]
  MIC: 4 µg/mL (≈ 5.83 µM)
[20]; GC2203, read-out: MINIMAL INHIBITORY CONCENTRATION MIC, Human Serum
  MIC: > 64 µg/mL
[20]; GC2203, read-out: MINIMAL INHIBITORY CONCENTRATION MIC, Mouse Serum
  MIC: > 64 µg/mL
[20]; GC2203, read-out: MINIMAL INHIBITORY CONCENTRATION MIC, Water
  MIC: > 64 µg/mL
